Assays:
myocardial infarction = myocardial infarction by coronary artery ligation, echocardiography and histology; format: in vivo, mice
Protocol: Because of thymosin β4's effects on survival and migration of cardiomyocytes cultured in vitro and phosphorylation of Akt, it was tested whether thymosin β4 might aid in cardiac repair in vivo after myocardial damage. Myocardial infarctions in fifty-eight adult mice were created by coronary artery ligation and treated half with systemic, intracardiac, or systemic plus intracardiac thymosin β4 immediately after ligation and the other half with PBS. Intracardiac injections were done with collagen (control) or collagen mixed with thymosin β4. All forty-five mice that survived two weeks later were interrogated for cardiac function by random-blind ultrasonagraphy at 2 and 4 weeks after infarction by multiple measurements of cardiac contraction. […] Control cardiac injections were performed with the same collagen vehicle making it unlikely that an endogenous reaction to the injection contributed to the cardiac recovery.
To determine the manner in which thymosin β4 improved cardiac function, multiple serial histologic sections of hearts treated with or without thymosin β4 were examined. […] TUNEL positive cells that were also myocytes were rare in the thymosin β4 group but abundant in the control hearts. […] Thus, the decreased scar volume and preserved function of thymosin β4 treated mice were likely due to early preservation of myocardium after infarction through thymosin β4's effects on survival of cardiomyocytes.
Embryonic or adult cardiac tissue was embedded in paraffin and sections used for immunohistochemistry. […] Adult hearts were sectioned at ten equivalent levels from the base of the heart to the apex. Serial sections were used for trichrome sections and reaction with sarcomeric a-actinin, c-kit, Sca-1, Abcg2, and BrdU antibodies and for TUNEL assay (Intergen Company # S7111).
(§1) Myocardial infarction was produced in fifty-eight male C57BL/6J mice at 16 weeks of age (25-30 g) by ligation of the left anterior descending coronary artery as previously described. Twenty-nine of the ligated mice received thymosin β4 treatment immediately following ligation and the remaining twenty-nine received PBS injections. Treatment was given intracardiac with thymosin β4 (200 ng in 10 ul collagen) or with 10 ul of collagen; intraperitoneally with thymosin β4 (150 μg in 300 μl PBS) or with […]; or by both intracardiac and intraperitoneal injections. Intraperitoneal injections were given every three days until mice were sacrificed. Doses were based on previous studies of thymosin β4 biodistribution. Hearts were removed, weighed and fixed for histologic sectioning. Additional mice were operated on in a similar fashion for studies 0.5, 1, 3, 6 and 11 days after ligation.
Echocardiograms to assess systolic function were performed using M-mode and 2-dimensional measurements as described previously. The measurements represented the average of six selected cardiac cycles from at least two separate scans performed in random-blind fashion with papillary muscles used as a point of reference for consistency in level of scan. End diastole was defined as the maximal left ventricle (LV) diastolic dimension and end systole was defined as the peak of posterior wall motion. Single outliers in each group were omitted for statistical analysis. Fractional shortening (FS), a surrogate of systolic function, was calculated from LV dimensions as follows: FS=EDD−ESD/EDD×100%. Ejection fraction (EF) was calculated from two-dimensional images. EDD, end diastolic dimension; ESD, end systolic dimension.
Scar volume was calculated using six sections through the heart of each mouse using Openlab 3.03 software (Improvision) similar to previously described. Percent area of collagen deposition was measured on each section in blinded fashion and averaged for each mouse.

ILK and Akt = assay: western blot of heart lysates after coronary ligation; format: in vivo, mice
Protocol: Because thymosin β4 upregulates ILK activity and Akt phosphorylation in cultured cells, the effects on these kinases in vivo were tested. […] Total Akt protein was not increased.
as §1

embryonic heart explants = format: cell-based
From the text: To test the effects of secreted thymosin β4 on cardiac cell migration, an embryonic heart explant system designed to assay cell migration and transformation events on a three-dimensional collagen gel was utilized. In this assay, explants of adjacent embryonic myocardium and endocardium from valve-forming regions were placed on a collagen gel with the endocardium adjacent to the collagen.
Outflow tract was dissected from E11.5 wild type mouse embryos and placed on collagen matrices as previously described. After 10 hours of attachment explants were incubated in 30 ng/300 μl thymosin β4 in PBS, PBS alone or thymosin β4 and 100 nM wortmanin. Cultures were carried out for 3-9 days at 37° C. 5% CO2 and fixed in 4% paraformaldehyde in PBS for 10 min at RT. Cells were counted for quantification of migration and distance using at least three separate explants under each condition for endothelial migration and eight separate explants for myocardial migration.
Paraformaldehyde-fixed explants were permeabilized for 10 min at RT with Permeabilize solution (10 mM PIPES pH6.8; 50 mMNaCl; 0.5% Triton X-100; 300 mM Sucrose; 3 mM MgCl2) and rinsed with PBS 2×5 min at RT. After a series of blocking and rinsing steps, detection antibodies were used and explants rinsed and incubated with Equilibration buffer (Anti-Fade kit) 10 min at room temperature. Explants were scooped to a glass microscope slide, covered, and examined by fluorescein microscopy. TUNEL assay was performed using ApopTag Plus Fluorescein In Situ Apoptosis detection kit (Intergen Company # S7111) as recommended.

[1] = test system: primary rat neonatal cardiomyocytes; assay: primary neonatal cardiomyocytes cultured on laminin-coated glass; format: cell-based
Protocol: To test the response of post-natal cardiomyocytes, primary rat neonatal cardiomyocytes were cultured on laminin-coated glass and treated the cells with phosphate buffered saline (PBS) or thymosin β4. […] In addition to thymosin β4's effects on myocardial cell migration, a similar effect was observed on endothelial migration in the embryonic heart explant assay.
Primary culture of neonatal cardiomyocytes typically survived for approximately one to two weeks with some cells beating up to two weeks when grown on laminin-coated slides in our laboratory. […] In addition, the rate of beating was consistently faster in thymosin β4-treated neonatal cardiomyocytes (95 vs. 50 beats per minute, p<0.02), indicating either a change in cell-cell communication or more vigorous cardiomyocytes.

[2] = four weeks after infarction, versus control

thymosin β4
cardiac dilation after infarction (EDD and ESD) (myocardial infarction; EDD and ESD significantly higher in control group): decreased cardiac dilation | degree of improvement, systemic intraperitoneal versus local intracardiac administration (myocardial infarction; echocardiography): not statistically different | mean fractional shortening of left ventricle (myocardial infarction; four weeks after infarction, n=23, 95% confidence interval, p<0.0001, control 23.2): 37.2+/−1.8% | mean ejection fraction (myocardial infarction; four weeks after infarction, n=23, 95% confidence interval, p<0.0001, control 28.2): 57.7+/−3.2% | improvement in cardiac fractional shortening (myocardial infarction; [2]): greater than 60% | improvement in ejection fraction (myocardial infarction; [2]): > 100% | scar volume (myocardial infarction; six levels of sections through left ventricle, subset of mice, p<0.05): significant reduction | left ventricle fractional shortening (myocardial infarction; three days after infarction, intracardiac treatment, n=4, 95% confidence interval, p<0.02, controls 28.8): 39.2+/−2.34% | ejection fraction (myocardial infarction; three days after infarction, intracardiac treatment, p<0.02, controls 44.7): 64.2+/−6.69% | size of scar (trichrome stain) (myocardial infarction; three levels of section, all treated mice): reduced | cell death by TUNEL assay in cardiomyocytes (myocardial infarction; twenty-four hours after ligation): striking decrease | total Akt protein (ILK and Akt): not increased | level of ILK protein in heart lysates (ILK and Akt; compared with PBS treated mice): increased | amount of phosphorylated Akt-5473 (ILK and Akt; phospho-specific antibodies): elevation | cell death based on TUNEL assay compared to control cells (embryonic heart explants): No significant difference | number of migrating endothelial cells (embryonic heart explants; E11.5 explants, compared to PBS, p<0.01): increased number of migrating endothelial cells | proliferative rate based on phosho-histone H3 immunostaining compared to control cells (embryonic heart explants; migrated cells of explants): No significant difference | migration of myocardial cells away from the explant (embryonic heart explants; thymosin β4 added to primary explants on collagen gel): a large number of spontaneously beating, cardiac muscle actin-positive cells had migrated away from the explant | migrational distance of neonatal cardiomyocytes ([1]; compared to PBS control, p<0.05): significantly increased | survival, rhythmically contracting myocytes visible ([1]; laminin-coated slides, untreated cultures approximately one to two weeks): up to 28 days | rate of beating ([1]; vs. 50 in control, p<0.02): 95 beats per minute

— US20090169538A1, “Methods of Treating or Preventing Tissue Damage Caused by Increased Blood Flow” (REGENERX BIOPHARMACEUTICALS, INC., priority 2006, published 2009)
